Source: paper PMC3319978 (Biochemical Pharmacology, 2011)

Tests used:
[1] = system: ATCC35218 E. coli blaTEM-1; assay: Disc diffusion susceptibility testing; details: 10 μg of ampicillin and each inhibitor, MH agar, 37 °C, 18 h
PDC-3 β-lactamase = PDC-3 β-lactamase (Pseudomonas aeruginosa, UniProt P24735, T105A); assay: Inhibition of nitrocefin hydrolysis; assay type: biochemical
β-lactamases = details: serve as excellent substrates of the β-lactamases; ref 27 (Fisher et al.); cited from earlier work

Question: With `CC1(C)S[C@@H]2[C@H](NC(=O)[C@H](N)c3ccccc3)C(=O)N2[C@H]1C(=O)O` [Ampicillin, ampicillin] as the molecule, how does the Zone diameter [1] read?
Answer: 6 mm

Question: For `O=C(O)[C@H]1/C(=C/CO)O[C@@H]2CC(=O)N21` [Clavulanic acid, clavulanic acid], which IC50 (PDC-3 β-lactamase) is on record?
Answer: > 100 µM

Question: With `CC1(C)[C@H](C(=O)O)N2C(=O)[C@@H](NC(=O)Cc3ccccc3)[C@H]2S1(=O)=O` [compound 19, penicillin G sulfone] as the molecule, how does the β-Lactamase inhibition (β-lactamases) read?
Answer: poor β-lactamase inhibitors
